In PMC12101465, “Synthesis and anti-mycobacterial activity of novel medium-chain β-lactone derivatives: a multi-target strategy to combat Mycobacterium abscessus” (RSC Medicinal Chemistry, 2025) one finds CC50 data, which are given here for 37 compounds.

≈ marks a conversion by molar mass, not a printed value.

The nature of this series: in vitro. Further details: resazurin reduction viability assay, fluorescence, cytotoxicity on murine macrophages. The following applies: mouse, raw macrophages; read-out: CC50 (µg/mL) Raw264.7. As to the method: The cytotoxicity of the new synthesized β-lactone analogs against eukaryotic cells was measured based on the reduction of resazurin as a value of cellular viability by metabolic activity, as previously described.[45,54,55] Murine (Raw264.7) macrophages (American Type Culture Collection TIB-71) were incubated with two-fold dilution of each compound for 24 h at 37 °C and 5% CO2. Then, 20 μL of a 0.025% (w/v) resazurin solution was added to each well, and fluorescence was measured following a 4 h incubation as described above. The compound concentration leading to 50% macrophage cell death was defined as the CC50.[28,29,56] All experiments were performed as three independent biological replicates. See ESI ^† for detailed protocol. 3.5. Cell toxicity of beta-lactone derivatives
`CCCCCCCCCCC1C(=O)OC1CCC` (stereo not shown) [VM025, 3-Decyl-4-propyloxetan-2-one]: the CC50 at 24 h is > 125 µg/mL.

Consider `CCCCCCNC(=O)CCCCCCCC1C(=O)OC1CCC` (stereo not shown) [VM047, N-Hexyl-8-(2-oxo-4-propyloxetan-3-yl)octanamide], for which the CC50 at 24 h is > 125 µg/mL. As for `CCCCCCCC[C@@H]1C(=O)O[C@H]1CCC` (racemic) [VM038, (±)-trans 3-Octyl-4-propyloxetan-2-one], the figure is > 125 µg/mL; as for `CCCCCCCC(=O)NCCCCCCC1C(=O)OC1CCC` (stereo not shown) [VM048, N-(6-(2-Oxo-4-propyloxetan-3-yl)hexyl)octanamide], > 125 µg/mL; as for `C#CCCC[C@@H]1C(=O)O[C@H]1CCC` (racemic) [VM050p, (±)-trans 3-(Pent-4-yn-1-yl)-4-propyloxetan-2-one], 44.1 ± 2.4 µg/mL (≈ 245 µM). The figure for `C#CCCCCCCCCCC1C(=O)OC1CCC` (stereo not shown) [VM051p, 4-Propyl-3-(undec-10-yn-1-yl)oxetan-2-one] is > 125 µg/mL. As for `CCCCCCCCCC[C@@H]1C(=O)O[C@@H]1CCC` (racemic) [VM027, (±)-cis 3-Decyl-4-propyloxetan-2-one], the figure is > 125 µg/mL; as for `CCCCCCCC[C@@H]1C(=O)N[C@H]1CCC` (racemic) [VM057, (±)-trans 3-Octyl-4-propylazetidin-2-one], 52.7 ± 1.1 µg/mL (≈ 234 µM). Turning to `CCCCCCCCCCCC[C@@H]1C(=O)O[C@H]1CCC` (racemic) [VM040, (±)-trans 3-Dodecyl-4-propyloxetan-2-one], the CC50 at 24 h was > 125 µg/mL. On to `C#CCCCCCC[C@@H]1C(=O)O[C@H]1CCC` (racemic) [VM053p, (±)-trans 3-(Oct-7-yn-1-yl)-4-propyloxetan-2-one], for which the CC50 at 24 h is > 125 µg/mL. Consider `CCCCCCCCCCCC[C@@H]1C(=O)O[C@@H]1CCC` (racemic) [VM041, (±)-cis 3-Dodecyl-4-propyloxetan-2-one], for which the CC50 at 24 h is > 125 µg/mL. The figure for `CCCCCCCC/C=C\CCCCCCC1(F)C(=O)OC1CCC` (stereo not shown) [VM042, (Z)-3-Fluoro-3-(hexadec-7-en-1-yl)-4-propyloxetan-2-one] is > 125 µg/mL; for `CCCCCCCC/C=C\CCCCCCCC[C@@H]1C(=O)O[C@H]1CCC` (racemic) [VM029, (±)-trans (Z)-3-(Octadec-9-en-1-yl)-4-propyloxetan-2-one] it is > 125 µg/mL; for `CCCCCCCCOCCCCCCCCC1C(=O)OC1CCC` (stereo not shown) [VM045, 3-(8-(Octyloxy)octyl)-4-propyloxetan-2-one] it is > 125 µg/mL. The figure for `CCCCCCCCC1(F)C(=O)OC1CCC` (mixture of isomers) [VM043, 3-Fluoro-3-octyl-4-propyloxetan-2-one] is > 125 µg/mL; for `CCCCCCCCCC[C@@H]1C(=O)O[C@H]1CCC` (racemic) [VM026, (±)-trans 3-Decyl-4-propyloxetan-2-one] it is > 125 µg/mL; for `C#CCCCCCCC[C@@H]1C(=O)O[C@H]1CCC` (racemic) [VM052p, (±)-trans 3-(Non-8-yn-1-yl)-4-propyloxetan-2-one] it is > 125 µg/mL. As for `CCC[C@@H]1OC(=O)[C@H]1CCCCCCCCN=[N+]=[N-]` (racemic) [VM055p, (±)-trans 3-(8-Azidooctyl)-4-propyloxetan-2-one], the figure is > 125 µg/mL; as for `CCCCCCCC/C=C\CCCCCCCC[C@@H]1C(=O)O[C@@H]1CCC` (racemic) [VM030, (±)-cis (Z)-3-(Octadec-9-en-1-yl)-4-propyloxetan-2-one], > 125 µg/mL; as for `CCCCCCCC/C=C\CCCCCC[C@@H]1C(=O)O[C@H]1CCCCCC` (racemic) [VM022, (±)-trans (Z)-3-(Hexadec-7-en-1-yl)-4-hexyloxetan-2-one], > 125 µg/mL. In the case of `CCCCCCCC/C=C\CCCCCCC[C@H]1OC(=O)[C@H]1CCC` (racemic) [VM037, (±)-cis 4-((Z)-Heptadec-8-en-1-yl)-3-propyloxetan-2-one], the CC50 at 24 h is > 125 µg/mL. As to `CCCCCCCCCCCCC1C(=O)NC1CCC` (stereo not shown) [VM056, 3-Dodecyl-4-propylazetidin-2-one], the CC50 at 24 h came to 30.6 ± 1.1 µg/mL (≈ 109 µM). For `CCCCCCCC/C=C\CCCCCC[C@@H]1C(=O)O[C@H]1CC` (racemic) [VM017, (±)-trans (Z)-4-Ethyl-3-(hexadec-7-en-1-yl)oxetan-2-one], the CC50 at 24 h is > 125 µg/mL. The figure for `CCCCCCCC/C=C\CCCCCC[C@@H]1C(=O)O[C@H]1CCCCCCCCC` (racemic) [VM021, (±)-trans (Z)-3-(Hexadec-7-en-1-yl)-4-nonyloxetan-2-one] is > 125 µg/mL; for `CCCCCCCC/C=C\CCCCCC[C@@H]1C(=O)O[C@@H]1CCCCCCCCC` (racemic) [VM023, (±)-cis (Z)-3-(Hexadec-7-en-1-yl)-4-nonyloxetan-2-one] it is > 125 µg/mL. Regarding `CCCCCCCC/C=C\CCCCCCCCC1C(=O)OC1CCC` (stereo not shown) [VM028, (Z)-3-(Octadec-9-en-1-yl)-4-propyloxetan-2-one], the CC50 at 24 h was > 125 µg/mL. The figure for `C#CCCC1OC(=O)C1CCCCCCCC/C=C\CCCCCCCC` (stereo not shown) [VM035p, (Z)-4-(But-3-yn-1-yl)-3-(octadec-9-en-1-yl)oxetan-2-one] is > 125 µg/mL. Regarding `CCCCCC[C@@H]1C(=O)O[C@H]1CCC` (racemic) [VM019, (±)-trans 3-Hexyl-4-propyloxetan-2-one], the CC50 at 24 h is > 125 µg/mL. As for `C#CCCCC1C(=O)OC1CCC` (stereo not shown) [VM049p, 3-(Pent-4-yn-1-yl)-4-propyloxetan-2-one], the CC50 at 24 h turned out to be 68.1 ± 3.1 µg/mL (≈ 378 µM).

Regarding `CCCCCCCC[C@@H]1C(=O)O[C@@H]1CCC` (racemic) [VM039, (±)-cis 3-Octyl-4-propyloxetan-2-one], the CC50 at 24 h came out at 119 ± 4 µg/mL (≈ 526 µM). On to `CCCCCCCCCCCCC1(F)C(=O)OC1CCC` (stereo not shown) [VM044, 3-Dodecyl-3-fluoro-4-propyloxetan-2-one], for which the CC50 at 24 h was > 125 µg/mL. As for `CCCCCCCC/C=C\CCCCCCC[C@@H]1OC(=O)[C@H]1CCC` (racemic) [VM036, (±)-trans 4-((Z)-Heptadec-8-en-1-yl)-3-propyloxetan-2-one], the figure is > 125 µg/mL. As for `CCCCCCCC/C=C\CCCCCC[C@@H]1C(=O)O[C@@H]1CCCCCC` (racemic) [VM024, (±)-cis (Z)-3-(Hexadec-7-en-1-yl)-4-hexyloxetan-2-one], the figure is > 125 µg/mL; as for `CCCCCCCC/C=C\CCCCCC[C@@H]1C(=O)O[C@@H]1CC` (racemic) [VM018, (±)-cis (Z)-4-Ethyl-3-(hexadec-7-en-1-yl)oxetan-2-one], > 125 µg/mL. The figure for `CCCCCCCCOCCCCCCCCC1(F)C(=O)OC1CCC` (stereo not shown) [VM046, 3-Fluoro-3-(8-(octyloxy)octyl)-4-propyloxetan-2-one] is > 125 µg/mL; for `C#CCCC1OC(=O)C1CCCCCCCCCCCC` (stereo not shown) [VM054p, 4-(But-3-yn-1-yl)-3-dodecyloxetan-2-one] it is > 125 µg/mL. In the case of `CCCCCCCCC1C(=O)NC1CCC` (stereo not shown) [VM058, 3-Octyl-4-propylazetidin-2-one], the CC50 at 24 h worked out at 40.1 ± 0.6 µg/mL (≈ 178 µM).
